Test results as given in patent US12421249B2, “Inhibitors of APOL1 and methods of using same” (Vertex Pharmaceuticals Incorporated, priority 2020, dated 2025).
Read-outs that look alike come from different tables or passages of the source.

Columns and labels:
APOL1 G1 = target: T1, APOL1 G1 (Homo sapiens, UniProt O14791, I384M/S342G); experiment: Trypanosoma brucei brucei Lysis Assay Using APOL1 Recombinant Protein (AlamarBlue viability readout); assay type: cell-based; conditions: for IC50: IP50 = IC50 for cell proliferation, read-out: Trypanosome Assay IP50; for Emax: read-out: Trypanosome Assay Max Activity (%)
T1 sequence (O14791 28-398 S342G/I384M): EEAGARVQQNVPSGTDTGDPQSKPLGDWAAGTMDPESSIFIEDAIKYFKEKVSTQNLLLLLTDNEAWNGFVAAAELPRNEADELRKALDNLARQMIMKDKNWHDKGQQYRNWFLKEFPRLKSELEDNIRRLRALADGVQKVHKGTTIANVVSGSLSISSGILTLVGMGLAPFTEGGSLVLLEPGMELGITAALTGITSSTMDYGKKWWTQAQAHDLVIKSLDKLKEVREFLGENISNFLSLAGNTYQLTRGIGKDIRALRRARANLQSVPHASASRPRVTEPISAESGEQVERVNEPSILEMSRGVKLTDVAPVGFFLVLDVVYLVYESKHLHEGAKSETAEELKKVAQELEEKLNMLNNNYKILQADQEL
Description: Trypanosoma brucei brucei is a blood stream parasite to which human, gorillas, and baboons are immune due to the presence of the APOL1 protein in their HDL particles. The protein is uptaken by the parasite via the TbHpHb receptor located in its flagellar pocket and is bonded by the Hpr protein contained in the HDL particles which triggers the receptor endocytosis by the parasite.
Following endocytosis, the formed vesicle containing the HDL particle matures from early to late endosome, and subsequently to lysosome. The concomitant pH change in the lumen of the vesicle triggers the insertion of the APOL1 protein into the membrane of the late endosome/lysosome and hereby triggers lysosomal membrane permeabilization and as a further downstream event, trypanosome lysis. Trypanosoma brucei brucei is sensitive to lysis by all three APOL1 variants (G0, G1, and G2).
The Trypanosoma brucei brucei lysis assay is a lysis assay of the parasite using recombinant APOL1 protein variant followed by a fluorescent detection method of viability by the addition of AlamarBlue reagent to the assay well, a general metabolic redox indicator (AlamarBlue assay).
Briefly, the AlamarBlue active compound, resazurin, a blue, water soluble, non-toxic and cell permeable molecule, which can be followed by absorbance, is reduced by various metabolic pathways into resorufin, a red compound which can be followed by either absorbance or fluorescence. The assay allows the calculation of the percent viability (percent of living Trypanosomes remaining in each well) at the end of a lysis relative to the untreated condition by interpolation of fluorescent values (FLU) on a standard curve with a known amount of seeded trypanosome/well.
Trypanosoma brucei brucei (ATCC, Cat. No. PRA-382)
• Lister 427 VSG 221 bloodstream form.
Equipment • E1-Clip Tip pipette 12 channel adjustable 2-125 μL, Cat. No. 4672070BT • ThermoFisher MultiDrop 384, Cat. No. 5840300 • Multidrop • Agilent Bravo, Cat. No. G5409A • Bravo • SpectraMax M5 Assay Ready Plates (ARPs) • ARPs comes in two formats: • […] final top concentration with a 2.5 fold dilution down. • […] final top concentration with a 3 fold dilution down. • Both have a 10 point Dose response. • 0.1% DMSO final in the Black Assay Plate. • Compounds are diluted 1000 fold in the Black Assay Plate. • Each plate is designed for 14 compounds in duplicate. • In the final Black Assay Plate: • Column 1: Media only (no APOL1) (100% viable) • Column 2-23: 0.05 μg/mL APOL1 (˜EC90) (10% viable with APOL1) • Column 24: 0.1 μg/mL APOL1 (EC100) (Approx. […] Step 2, Day 4 • Centrifuge at 800×g for 5 minutes at room temperature. • Resuspend in 1 mL media. • Make a 1:25 fold dilution (10 μL/240 μL media). • Count on a hemocytometer (after adding parasites). • Let sit for 1-2 minutes for the parasites to settle. • Count should be approximately 100 viable motile parasites/16 grid or approximately 25×10^6 parasites/flask. • Passage the parasites by adding 1×10^6 parasites/T75 flask in 20 mL media. • Passage the parasites by adding 2.33×10^6 parasites/T175 flask in 46.6 mL media. • For every T75 flask should make enough for approximately 1.5×384 well assay plates. • For every T175 flask should make enough for approximately 3.8×384 well assay plates. Step 3, Day 6 • Centrifuge at 800×g for 5 minutes. • Resuspend in 3 mL assay media (No phenol red, no FBS) per 75 starting flask. • Resuspend in 7 mL assay media (No phenol red, no FBS) per 175 flask • Make a 1:25 fold dilution. • Count by hemocytometer. • Every T75 flask set up should have approximately 75×10^6 parasites/flask (verify doubling time=8.7 hours±1 hour). • Every T175 flask set up should have approximately 175×10^6 parasites/flask (verify doubling time=8.7 hours±1 hour). • Require 46×10^6 parasites per 384 well plate (at 120,000 parasites per well). […]

APOL1 = target: T2, APOL1 (Homo sapiens, UniProt O14791); experiment: Multi-Tox Assay (MultiTox-Fluor Multiplex Cytotoxicity Assay in tet-inducible APOL1 T-REx-HEK293 cells; Table 46 does not say which APOL1 variant G0/G1/G2); assay type: cell-based; conditions: APOL1 variant not given; for IC50: IP50 = IC50 for cell proliferation
T2 sequence (O14791 1-398 S342G/I384M): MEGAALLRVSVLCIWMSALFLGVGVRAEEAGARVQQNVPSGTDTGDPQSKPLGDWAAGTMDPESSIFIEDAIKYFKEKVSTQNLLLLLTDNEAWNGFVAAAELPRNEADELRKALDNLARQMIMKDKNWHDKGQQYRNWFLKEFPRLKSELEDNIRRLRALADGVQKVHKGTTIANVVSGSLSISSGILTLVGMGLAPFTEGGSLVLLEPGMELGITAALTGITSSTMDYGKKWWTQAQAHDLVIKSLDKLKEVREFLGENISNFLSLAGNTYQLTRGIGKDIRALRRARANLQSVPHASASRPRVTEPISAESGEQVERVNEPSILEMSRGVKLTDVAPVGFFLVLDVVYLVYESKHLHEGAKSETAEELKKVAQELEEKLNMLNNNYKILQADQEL

Row | Structure (SMILES) | IC50 (APOL1 G1; Trypanosome Assay) [nM] | Emax (APOL1 G1; Trypanosome Assay) [%] | IC50 (APOL1) [nM] | Emax (APOL1 G1) [%] | IC90 (APOL1) [nM] | Multi-Tox Assay Max Activity (%) (APOL1)
1 | COc1ccc(C2CC3(CC(C)N2)OCCc2cc(Cl)sc23)nn1 (mixture of isomers) [Compound 76] | < 50 | 106 | < 50 | – | – | –
2 | COc1cccc(C2CC3(CC(C)N2)OCCc2cc(Cl)sc23)n1 (mixture of isomers) [Compound 135] | 50 to 500 | 94 | 50 to 500 | – | – | –
3 | CC1CC2(CC(C)N1)OCCc1cc(Cl)sc12 (mixture of isomers) [Compound 194, 2-chloro-2′,6′-dimethyl-spiro[4,5-dihydrothieno[2,3-c]pyran-7,4′-piperidine]] | 50 to 500 | – | 50 to 500 | 117 | – | –
4 | CC1CC2(CC(CO)N1)OCCc1cc(Cl)sc12 (mixture of isomers) [Compound 210, (2-chloro-6′-methyl-spiro[4,5-dihydrothieno[2,3-c]pyran-7,4′-piperidine]-2′-yl)methanol] | > 500 | 104 | > 500 | – | – | –
5 | CC1CC2(CC(C3CC3)N1)OCCc1cc(Cl)sc12 (mixture of isomers) [Compound 211, (2S,6S)-2-chloro-2′-cyclopropyl-6′-methyl-spiro[4,5-dihydrothieno[2,3-c]pyran-7,4′-piperidine]] | 50 to 500 | 113 | < 50 | – | 50 to 500 | 99.6
6 | CC1CC2(CC(C(C)C)N1)OCCc1cc(Cl)sc12 (mixture of isomers) [Compound 214] | 50 to 500 | 109 | < 50 | – | – | –
7 | CCC1CC2(CC(C)N1)OCCc1cc(Cl)sc12 (mixture of isomers) [Compound 215] | 50 to 500 | 112 | < 50 | – | – | –
8 | CC1CC2(CC(C3CCOCC3)N1)OCCc1cc(Cl)sc12 (mixture of isomers) [Compound 216] | 50 to 500 | 104 | 50 to 500 | – | – | –
9 | CC1CC2(CC(C3CC3)N1)OCCc1cc(Cl)sc12 (mixture of isomers) [Compound 217] | < 50 | 110 | < 50 | – | – | –
10 | CC1CC2(CC(C3CCC3)N1)OCCc1cc(Cl)sc12 (mixture of isomers) [Compound 218] | 50 to 500 | 111 | < 50 | – | – | –
11 | CC1CC2(CC(c3cccnc3)N1)OCCc1cc(Cl)sc12 (racemic) [Compound 20, 2-chloro-2′-methyl-6′-(3-pyridyl)spiro[4,5-dihydrothieno[2,3-c]pyran-7,4′-piperidine]] | < 50 | – | < 50 | 116 | – | –
12 | Cc1cc([C@@H]2C[C@]3(C[C@H](C)N2)OCCc2cc(Cl)sc23)ccn1 (racemic) [Compound 21, (2S)-2-chloro-2′-methyl-6′-(2-methyl-4-pyridyl)spiro[4,5-dihydrothieno[2,3-c]pyran-7,4′-piperidine]] | < 50 | 108 | < 50 | – | – | –
13 | CC1CC2(CC(c3cn(C)cn3)N1)OCCc1cc(Cl)sc12 (racemic) [Compound 22] | < 50 | 129 | < 50 | – | < 50 | 99.7
14 | Cc1noc2cc([C@@H]3C[C@]4(C[C@H](C)N3)OCCc3cc(Cl)sc34)ccc12 (racemic) [Compound 25] | < 50 | 109 | < 50 | – | – | 100.0
15 | C[C@H]1C[C@@]2(C[C@@H](c3cnc4c(cnn4C)c3)N1)OCCc1cc(Cl)sc12 (racemic) [Compound 26] | < 50 | 110 | < 50 | – | – | 100.0
16 | C[C@H]1C[C@@]2(C[C@@H](c3ccc4oc(=O)n(C)c4c3)N1)OCCc1cc(Cl)sc12 (racemic) [Compound 28] | < 50 | 104 | < 50 | – | < 50 | 100.0
17 | Cc1cc([C@@H]2C[C@]3(C[C@H](C)N2)OCCc2cc(Cl)sc23)no1 (racemic) [Compound 29] | < 50 | 109 | < 50 | – | < 50 | 100.0
18 | C[C@H]1C[C@@]2(C[C@@H](c3ccc4c(c3)n(C)c(=O)n4C)N1)OCCc1cc(Cl)sc12 (racemic) [Compound 32] | < 50 | 116 | < 50 | – | < 50 | 99.6
19 | COCCOCCOc1ccc([C@@H]2C[C@]3(C[C@H](C)N2)OCCc2cc(Cl)sc23)cc1 (racemic) [Compound 36] | < 50 | 118 | < 50 | – | < 50 | 100.0
20 | COc1ccc([C@@H]2C[C@]3(C[C@H](C)N2)OCCc2cc(Cl)sc23)c(F)c1 (racemic) [Compound 44] | < 50 | 106 | < 50 | – | – | 99.5
21 | C[C@H]1C[C@@]2(C[C@@H](c3ccc(C(N)=O)cc3)N1)OCCc1cc(Cl)sc12 (racemic) [Compound 47] | < 50 | – | < 50 | – | – | –
22 | Cc1n[nH]c2ncc([C@@H]3C[C@]4(C[C@H](C)N3)OCCc3cc(Cl)sc34)cc12 (racemic) [Compound 48] | < 50 | 102 | < 50 | – | – | 99.0
23 | COc1ccc([C@@H]2C[C@]3(C[C@H](C)N2)OCCc2cc(Cl)sc23)cn1 (racemic) [Compound 49] | < 50 | 104 | < 50 | – | – | –
24 | CC(=O)Nc1ccc([C@@H]2C[C@]3(C[C@H](C)N2)OCCc2cc(Cl)sc23)cc1 (racemic) [Compound 50] | < 50 | 103 | < 50 | – | – | 99.7
25 | C[C@H]1C[C@@]2(C[C@@H](c3cn(C)nn3)N1)OC[C@H](O)c1cc(Cl)sc12 [Compound 177, (2′S,4R,6′S,7S)-2-chloro-2′-methyl-6′-(1-methyltriazol-4-yl)spiro[4,5-dihydrothieno[2,3-c]pyran-7,4′-piperidine]-4-ol] | 50 to 500 | 107 | – | – | – | –
